US10195284B2, “Compositions and methods for controlled localized delivery of bone forming therapeutic agents” (University of Rochester, priority 2013, dated 2019)
“And” between values parts separate entries of the source, which are not always exact repeats. Identical values can stand only once. Like-named read-outs stand apart in the source and are kept apart here. Ends that are not written are not given here.

Tests used:
[1] = target: T1, tartrate-resistant acid phosphatase (TRAP) (Homo sapiens, UniProt P13686); test: Surface plasmon resonance (SPR) affinity of peptides and peptide-functionalized polymers for TRAP, binding-curve fit
T1 sequence (P13686 22-325): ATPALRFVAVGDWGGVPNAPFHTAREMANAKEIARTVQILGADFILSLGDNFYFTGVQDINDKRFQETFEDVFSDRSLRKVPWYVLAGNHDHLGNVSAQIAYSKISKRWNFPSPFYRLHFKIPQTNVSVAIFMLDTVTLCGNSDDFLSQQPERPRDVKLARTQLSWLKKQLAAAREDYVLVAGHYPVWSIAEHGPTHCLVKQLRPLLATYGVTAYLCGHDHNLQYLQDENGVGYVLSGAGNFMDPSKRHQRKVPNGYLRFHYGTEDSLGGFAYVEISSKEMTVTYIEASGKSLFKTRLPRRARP
Procedure: (§1) Surface plasmon resonance (SPR) is used to assess the affinity of peptides for TRAP. Series S Sensor CM5 Chips are functionalized with TRAP via 1-ethyl-3-(3-dimethylaminopropyl) carbodiimide (EDC)/N-hydroxysuccinimide (NHS) chemistry. Briefly, the chips, which have a carboxymethylated dextran functionality, are activated through the introduction of NHS and EDC. After activation, TRAP protein, at 30 μg/mL in sodium acetate (pH=5), is introduced to the surface. Ethanolamine-hydrochloric acid is used to quench unreacted carboxysuccinimide groups. Peptides are dissolved in running buffer of PBS with 0.005% Tween20. Peptides are analyzed in duplicate at different concentrations. Surface regeneration is achieved using a combination of 1 and 2 M NaCl and 1-50 mM NaOH solutions as necessary.
In SPR, the binding of any molecules to the surface of the sensor chips results in a change in the angle of incident light reflection, allowing highly-sensitive detection of miniscule amounts of ligand binding to the surface. Target affinity can be determined by introducing increasing concentrations of the ligand to the surface. Higher concentrations of samples elicited larger responses. The binding response was measured and plotted against concentration (FIG. 4), allowing for a fitting of the data by a binding curve. From this fitting, values such as KD can be determined. Through this technique, the affinity of TBP and SCP was analyzed. […] While not wishing to be bound by any particular theory, a possible, but improbable, cause for difference in affinity is the inclusion of the glycine residue on the carboxylic end of the synthesized peptide used herein. Despite this addition, the order of the original sequence is preserved, and glycine is a small, uncharged and nonpolar amino acid. […] In prior studies using phage display, five copies of the peptide are present and exposed (Sheu et al., 2002, Journal of Bone and Mineral Research, 17(5):915-922). Therefore, part of the higher affinity seen in the phage display experiments could be due to the multivalent nature of the peptide on the phage.
Quantitative analyses of peptide and polymer affinities were performed using SPR. […] The binding of any molecules to the surface of the sensor chips results in a change in the angle of incident light reflection, allowing highly-sensitive detection of miniscule amounts of ligand binding to the surface. Target affinity can be determined by introduction of increasing concentrations of the molecule to the surface (FIG. 38A and FIG. 38B). Typically higher concentrations of samples elicited larger responses, with a larger response from polymers at lower concentrations in comparison to the TBP alone. […] Furthermore, polymer samples required the application of regeneration buffers, ranging from a mild buffer of 500 mM NaCl to a harsher buffer of 5 mM NaOH, to return the signal to previous levels. The binding response is measured and plotted against concentration, allowing for a fitting of the data by a binding curve. From this fitting, values such as the dissociation constant (KD) value can be determined. Through this technique, the affinity of peptides and peptide-functionalized polymers were analyzed. […] However, inclusion of peptide functionalities results in substantial increases in TRAP affinities (KD˜7.1-21 μM). […] While not wishing to be bound by any particular theory, a possible, but improbable, cause for difference in affinity is the inclusion of the glycine residue on the carboxylic end of the synthesized peptide used herein. Despite this addition the order of the original sequence is preserved and glycine is a small, uncharged and nonpolar amino acid. […] In prior studies using phage display, five copies of the peptide are present and exposed (Sheu et al., 2002, Journal of Bone and Mineral Research, 17(5): 915-922). Therefore part of the higher affinity seen in the phage display experiments could be due to the multivalent nature of the peptide on the phage. […]

[2] = Bone resorption pit binding of fluorescently labeled peptides, confocal imaging; design: species or system human; settings: fluorescently labeled peptide, overnight incubation
Procedure: Equal concentrations of fluorescently labeled TBP and SCP are prepared in 1× phosphate-buffered saline (PBS). Bone wafers are cut from cortical bone obtained from the femur of a human donor cadaver and incubated in peptide solutions overnight, washed twice with 1×PBS, and then visualized via confocal imaging. Stacked sections are compressed into 2D images to allow for qualitative analysis as in FIG. 3A through FIG. 3D. […] Qualitatively, no binding of SCP is detected (FIG. 3D).

[3] = target: T2, TRAP protein (Homo sapiens, UniProt P13686); test: SPR affinity of peptide-functionalized polymers for TRAP, initial rate analysis of sensorgrams; assay type: binding; settings: for SPR binding response to TRAP: sensorgrams
T2 sequence (P13686 22-325): T1 sequence (P13686 22-325)
Procedure: as §1, with “peptide-functionalized polymers” for “peptides”, “Polymers” for “Peptides”, “1-10” for “a combination of 1 and 2 M NaCl and 1-50”, “necessary. […] Sensorgram data (FIG. 22) are exported from the SPR evaluation software after smoothing data of injection events and analyzed. Response units (RU) are converted into concentrations for rate analysis using the equation: S[M]=RU/60000 MW” for “necessary.”
Where S is the concentration of polymer bound to the TRAP-functionalized surface and MW is the molecular weight of the polymer. The binding rates of polymers to TRAP are determined in the initial linear portion of association, within two seconds of the start of injection. The reciprocals of binding rates are plotted against the reciprocals of polymer concentrations to obtain a linear relationship, generalized in the equation: Vi^−1=KDSi^−1Vm^−1Vm^−1
Where Vi is the binding rate for each i concentration of polymer and Vm is the maximum binding rate of polymer to TRAP. This relationship identifies the KD for each polymer (Table 4). Only TBP-functionalized polymers show affinity for TRAP (FIG. 22), as control (SCP-functionalized and PEG) polymer show no positive binding response (FIG. 23A through FIG. 23C).

[4] = tested on: Mouse osteoblasts (MC3T3E1); test: Cytocompatibility of peptide-functionalized polymers, Picogreen DNA assay; assay type: cell-based; settings: 0.1 mM and 10 mM, 7 days, normalized to media alone
Procedure: Mouse osteoblasts (MC3T3E1) were maintained in alpha minimum essential media (α-MEM, Gibco), containing 10% fetal bovine serum (FBS, Invitrogen) and 1% penicillin-streptomycin-fungizone at 37° C. and 5% CO2. Cells were utilized at passage 5. To assess the cytocompatibility of peptide-functionalized polymers, cells were seeded in a 48 well plates at 10,000 cells/well and allowed to adhere overnight. Cells were treated with media alone or with peptide or peptide-functionalized polymers (0.1 mM and 10 mM) for 7 days, with media exchanges every two days. These concentrations employed are far higher than expected to be necessary for future uses and allowed for isolation of the maximum tolerated doses in vitro. After seven days of exposure, cells were washed, lysed by sonication, and analyzed for DNA concentration using the Picogreen Assay (Invitrogen). Results were normalized to cells treated with media alone.

[5] = tested on: β-catenin and ALP in osteoblasts; test: BIO treatment of osteoblasts, β-catenin levels and ALP production; assay type: cell-based; settings: 24 hours treatment
Procedure: Data represents mean±standard deviation for 3 trials. *p<0.05 versus control, #p<0.05 versus 2 μM BIO (n=5).
Several BIO-releasing polymers that are the correct molecular weight to enhance circulation time and avoid renal clearance have been successfully synthesized. […] Finally, released BIO biological activity is confirmed versus the free, unconjugated molecule and rescue of β-catenin signaling in osteoblasts is verified.

[6] = Vougogiannopoulou et al., 2008; cited from earlier work
[7] = Bone targeting of fluorescently labeled polymer therapeutics on osteoclast-resorbed bone wafers; assay type: binding, bovine
Procedure: Bovine cortical bone is cut into 5-mm square, 0.5-mm thick wafers using a low speed saw with a diamond wafering blade. Bone wafers are boiled in ddH2O for 15 minutes, placed in 96-well plates, sterilized in 70% ethanol for half an hour on each side, washed thrice in 1×PBS, and incubated in alpha minimum essential medium (α-MEM) for at least 1 hour at 37° C. before cell seeding.
Monocytes are freshly isolated from the spleens of mice, filtered twice with a 40 μm cell strainer, collected via centrifugation (5 minutes, 1000 rpm), and re-suspended in sterile filtered mouse red blood cell lysis buffer for 10 minutes at room temperature. After neutralizing lysis buffer with 1×PBS, monocytes are collected via centrifugation and washed in α-MEM containing 10% fetal bovine serum, 1% penicillin-streptomycin-fungizone, 1% GlutaMAX, and 1% non-essential amino acids before re-suspension in medium containing 100 ng mL^−1 M-CSF conditioned medium (Takeshita et al., 2000, J Bone Miner Res 15:1477). Monocytes are seeded in 96-well plates on the tissue culture surface or on prepared bovine cortical bone wafers at 2×10^5 cells well^−1 (1×10^6 cells mL^−1). After 3 days of incubation at 37° C. and 5% CO2, medium is supplemented with 1 ng mL^−1 receptor activator of nuclear factor κB ligand (RANKL) to induce osteoclast differentiation. […]

[8] = tested on: areas with cathepsin K and osteoclast activity at calvarial defect; test: Co-localization of polymers to actively remodeling bone, two-photon microscopy of cranial window defect; assay type: in vivo, mice; settings: 5 mg kg^−1 intraperitoneal, imaged thirty minutes later
Procedure: A thinned-skull cranial window is produced in mice as previously described (Yang et al., 2010, Nat Protoc 5:201). Briefly, a 500-μm diameter defect is made in the skull of mice and covered with a glass coverslip. The night before imaging, mice are injected intraperitoneal with 100 μL reconstituted cathepsin K probe in 1×PBS, prepared according to the manufacturer's protocol. At times of 3 and 8 days post-procedure, 5 mg kg^−1 of fluorescently-labeled pTBP, pSCP, or PEG in saline is injected intraperitoneal and imaged thirty minutes later using two-photon microscopy (Olympus Fluoview). Cathepsin K, a cysteine protease, is secreted by osteoclasts; therefore, TRAP is expected to be present in areas with cathepsin K activity. […] Bone drilling defects have been used previously to investigate osteoclast activity, with osteoclast accumulation at the defect evident from positive TRAP staining (Tanaka et al., 2010, J Biomed Mater Res, 93A(2): 469-474). […] Other live imaging modalities and sections of sacrificed mice are used to track biodistribution to other organs. Since the amino acid sequence of human, mouse, and rat TRAP is 89-94% homologous (Lamp and Drexler, 2000, Leukemia Lymphoma, 39(5-6): 477-484), it is probable that TBP-functionalized polymer therapeutic affinity to TRAP in mice can be translated into humans.

[9] = tested on: β-catenin in MSCs; test: β-catenin agonism and cellular uptake of NPs in MSCs; assay type: cell-based; settings: over 5 days of treatment
Procedure: To investigate the intracellular accessibility of this NPs, polymers were labeled with fluorescein isothiocyanate (FITC) fluorophore and incubated with MSCs (FIG. 44B). […] To validate β-catenin agonism of NP delivered GSK3β inhibitor XXVII, cells were treated with free GSK3β inhibitor XXVII and NP delivered GSK3β inhibitor XXVII.

[10] = TRAP-functionalized CM5 chip, n = 2, Ave. ± StDev, read-out: KD

Compound: scrambled control peptide, VPVGTLSYLKLTG (SEQ ID NO: 2) (VPVGTLSYLKLTG-OH; also: methacrylamide introduced on amine end for polymer incorporation) [SCP, reference compound]
- affinity for TRAP measured with SPR [1]: no affinity
- KD for TRAP ([1]; binding-curve fit): did not enable fitting of a binding curve or calculations of affinity
- binding to bone resorption pits [2]: no binding

Compound: 20% TBP (TPLSYLKGLVTVG)
- Kd ([3]; initial rate analysis of SPR sensorgrams): 70 µM

Compound: H-TPLSYLKGLVTVG [TBP]
- Kd ([1]; binding-curve fit, read-out: KD for TRAP): ~200 µM and ~700 µM
- Kd ([1]; read-out: affinity for TRAP measured with SPR): 795 µM
- binding to bone resorption pits [2]: specific binding

Compound: 20% SCP (VPVGTLSYLKLTG) [reference compound]
- SPR binding response to TRAP [3]: negative responses

Compound: 10% peptide-functionalized polymer (TPLSYLKGLVTVG)
- Kd [1, 10]: 12.7 µM
- cytocompatibility / cytotoxic effects [4]: worst cytocompatibility of all polymers tested

Compound: O=C1Nc2cc(Br)ccc2/C1=C1/Nc2ccccc2/C1=N\O [BIO, 6-bromoindirubin-3′-oxime]
- ALP production ([5]; analyzed 7-days after treatment): increased
- β-catenin levels ([5]; just after treatment): increased
- water solubility [6]: poor water solubility

Compound: TBP-functionalized polymer therapeutics (TPLSYLKGLVTVG)
- localization to resorption pits ([7]; resorbed bone wafers, fluorescently labeled): localize to resorption pits
- affinity for untreated bone ([7]; untreated bone wafers): No affinity
- colocalization with cathepsin K and osteoclast activity [8]: colocalize to areas with cathepsin K and osteoclast activity

Compound: 10% SCP (VPVGTLSYLKLTG) [reference compound]
- SPR binding response to TRAP [3]: negative responses

Compound: 20% peptide-functionalized polymer (TPLSYLKGLVTVG)
- Kd [1, 10]: 7.5 µM

Compound: CN1CCN(S(=O)(=O)c2ccc(-c3cnc(N)c(C(=O)Nc4cccnc4)n3)cc2)CC1 [GSK3β inhibitor XXVII, 3-amino-6-{4-[(4-methyl-1-piperazinyl)sulfonyl]phenyl}-N-(3-pyridinyl)-2-pyrazinecarboxamide]
- β-catenin agonism / activation [9]: potent agonist of β-catenin

Compound: 10% TBP (TPLSYLKGLVTVG)
- SPR binding response to TRAP [3]: positive response
